Patent US11154519B2, “Inhibitors and their uses” (MEDICAL RESEARCH COUNCIL, priority 2015, dated 2021)
Where two headings read alike, the source gives them in different places.

Experiments:
HeLa cells [1] = test: Cytoprotection against ER stress (tunicamycin), IncuCyte; assay type: cell-based; settings: Homo sapiens, 250 ng/ml Tunicamycin, 72 hours, compound 0-20 μM, read-out: Cytoprotection from Tm (compared to GNB)
Method: (§1) HeLa cells (40,000 cells/ml) were plated in a 96-well plate and treated with different concentrations (0-20 μM) of a compound as indicated in the presence of 250 ng/ml Tunicamycin for 72 hours. To monitor cell death 1/2000 dilution of the CellTox green dye (Promega) was added to the media. The growth of the cells was monitored over time and pictures taken every 2 hours with the IncuCyte ZOOM system and analysed by the IncuCyte ZOOM software (Essen BioScience). […] Cytoprotection against ER stress can be measured by a suitable assay. In this instance, cytoprotection was measured in HeLa cells in which ER stress was elicited by the addition of media containing tunicamycin, a drug that blocks N-glycosylation, thereby preventing protein folding and inducing the unfolded protein response. Cell viability was then detected in the presence and absence of a compound listed in Table 1 after a set period of time, by monitoring cell growth over time. Cytoprotection from ER stress was measured in terms of the percentage increase in viable cells (relative to control) after ER stress.

HeLa cells [2] = test: Cell death dose response (CellTox green, IncuCyte); assay type: cell-based; settings: for Effect on cell death: IncuCyte, 0-20 μM; for EC50: Homo sapiens, area under % cell death vs time curve against log conc, read-out: Effect on cell death ⇒ EC50
Method: Toxicity of the compounds is assessed using Cell viability Counting Kit-8 (Dojindo) or in a Incucyte (Essenbioscience) using both phase contrast and IncuCyte™ Cytotox Green Reagent.
as §1
EC50 were extrapolated from dose response experiments on cell death. Data from IncuCyte was plotted and analysed in Prism. The “% of cell death” for each data point. For each concentration there is a % of cell death vs time, the area under the curve was taken and plotted against log conc=>EC50 (analysis in Prism).

PP1 = target: T1, PP1 (Homo sapiens, UniProt P36873); test: SPR binding to PP1 alone; settings: SPR steady-state, bio-PP1c surface
T1 construct: made in house; host or cells: Sf9 insect cells (baculovirus, pDW464)

PPP1R15B-PP1 = target: T2, PPP1R15B-PP1 (Homo sapiens, UniProt Q5SWA1); test: SPR steady-state binding to R15B-PP1 holophosphatase
T2 construct: cDNAs encoding amino acids 325-636 of PPP1R15A and 340-698 of PPP1R15B were His-tagged and cloned into pMAL-c5x; made in house; host or cells: R15B: E. coli BL21-Gold (pMAL-c5x); PP1γ: Sf9 insect cells (baculovirus, pDW464)
Method: PPP1R15A^325-636 and PPP1R15B^340-698 were expressed and purified as follows: the cDNAs encoding amino acids 325-636 of PPP1R15A and 340-698 of PPP1R15B were His-tagged and cloned into pMAL-c5x. Recombinant PPP1R15A/B were expressed in BL21-Gold cells and purified by affinity chromatography on a HisTrap HP column (GE Healthcare), followed by a MBPTrap HP column (GE Healthcare). The proteins were analyzed on BOLT SDS-PAGE 4-12% Bis-Tris gels (Life Technologies) stained with SimplyBlue SafeStain (Life Technologies). cDNA encoding for human PP1γ was cloned into the baculovirus transfer vector pDW464 to add a biotin acceptor peptide (BAP). The vector also encodes for the E. coli biotin holoenzyme synthetase (BirA), so that BAP-tagged proteins can be biotinylated in vivo in Spodoptere frugiperda (Sf9) insect cells (Duffy et al., Anal. Biochem., 262, 122-128, 1998). The Bac-to-Bac baculovirus expression system (Life Technologies) was used to generate the recombinant bacmid DNA and Sf9 insect cells were used to amplify the viral stocks Cultures were harvested by centrifuging at 1,200 g for 15 minutes, cell pellets were resuspended in lysis buffer (50 mM Tris pH 7.4, 150 mM NaCl, 0.2% Triton, 5% Glycerol, 1 PiC tablet (Roche) per 50 ml and 0.2 mM PMSF) and followed by gentle sonication. The protein was first purified on a 5 ml HiTrap Q HP column (GE Healthcare) followed by a HiLoad 16/600 Superdex 200 column (GE Healthcare). The positive fractions confirmed by SDS-PAGE and western blot were pooled, concentrate to ˜1 μM and stored at −80° C.
A Biacore T200 (GE Healthcare) system was used for all experiments and biotinylated PP1 was captured using a Sensor Chip SA (GE Healthcare, catalog no BR-1005-31). The streptavidin coated surface was activated by 1 min injection with a solution of 50 mM NaOH and 1 M NaCl. Biotin-PP1 was diluted in the running buffer (50 mM Tris pH 7.5, 100 mM NaCl, 0.1 mM EGTA, 1 mM MnCl2, 0.05% Tween 20) and injected at approximately 300 nM concentration directly to streptavidin coated surface for 100 sec or to reach immobilization level of biotin-PP1 corresponding to ˜7000 RU. A blank immobilization was performed for one of the SA sensor chip surface to use as a reference.
With minor deviations, the same procedure and conditions were used in all binding experiments. Small molecules were stored as 50 mM stock solutions in 100% DMSO. Prior to determining binding constants, serial dilutions of either 12 or 8 concentrations of the compounds were prepared in the running buffer in a 96-well plate. Prior to each compound dilution series the regulatory subunit, R15A or R15B, was diluted to […] in the running buffer and captured on the biotin-PP1 surface, to form the holophosphatase complex on the sensor chip surface. Then, without regenerating the surface, the compound dilution series was injected onto the surface of the chip Sensorgrams were analyzed using the Biacore T200 evaluation software and the binding constants determined based on a steady-state model. Kinetic experiments are carried out using different concentrations of the compound and their respective equilibrium binding levels determined.
Surface Plasmon Resonance (SPR) was used to measure the binding affinity of compounds to the PPP1R15A/B-PP1 phosphatase complex. Biotin acceptor peptide (BAP) was fused to the N-terminus of PP1γ, which enables the biotinylation of the BAP-tagged protein in Sf9 insect cells. After purification the BAP-PP1γ protein was captured on a streptavidin sensor chip (SA-chip, GE healthcare) to a response level of ˜5.000 RU. Using controlled biotinylation enables orientated and uniform immobilization on the sensor chip surface. The PP1γ was then used to capture PPP1R15A/B and form a holophosphatase complex on the surface of the streptavidin chip. This complex can then be used to test binding of compounds. 10 μM PPP1R15A/B protein concentration was used to form the holophosphatase complex during a 80 s injection. […]

[3] = SPR steady-state, MBP-R15B340-698-His captured on bio-PP1c, 10° C., read-out: R15B (KD)

T2 sequence (Q5SWA1 340-698): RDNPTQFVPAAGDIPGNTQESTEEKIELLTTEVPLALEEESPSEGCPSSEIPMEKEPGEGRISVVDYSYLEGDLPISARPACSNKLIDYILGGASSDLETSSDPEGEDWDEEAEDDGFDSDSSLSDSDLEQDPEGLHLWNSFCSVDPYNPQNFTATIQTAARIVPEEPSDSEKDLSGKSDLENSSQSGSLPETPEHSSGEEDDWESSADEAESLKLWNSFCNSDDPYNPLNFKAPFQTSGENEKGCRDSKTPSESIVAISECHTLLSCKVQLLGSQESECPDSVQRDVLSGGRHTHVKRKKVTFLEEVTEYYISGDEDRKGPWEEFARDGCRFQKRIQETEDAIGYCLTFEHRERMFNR
T2 sequence (P36873 whole entry partner, the tested form may be a part): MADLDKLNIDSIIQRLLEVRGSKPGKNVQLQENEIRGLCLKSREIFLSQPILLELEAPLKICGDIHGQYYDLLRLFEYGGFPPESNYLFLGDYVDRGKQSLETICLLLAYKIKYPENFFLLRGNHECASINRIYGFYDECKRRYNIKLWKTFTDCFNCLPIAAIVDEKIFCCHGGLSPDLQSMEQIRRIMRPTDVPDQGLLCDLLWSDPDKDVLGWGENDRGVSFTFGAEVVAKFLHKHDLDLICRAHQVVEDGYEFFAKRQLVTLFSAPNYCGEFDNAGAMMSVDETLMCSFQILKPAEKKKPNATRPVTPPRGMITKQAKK
T1 sequence (P36873 whole entry): as the sequence (P36873 whole entry partner, the tested form may be a part) above

[H]/N=C(\N)NN=Cc1cccc(Cl)c1F [Compound 30, (E)-2-(3-chloro-2-fluorobenzylidene)hydrazine-1-carboximidamide]
Emax (HeLa cells [1]): 85%
Effect on cell death (HeLa cells [2]): No
Kd (PP1): 12.8 ± 0.08 µM
Kd (PPP1R15B-PP1; [3]): 12.3 ± 0.6 µM

[H]/N=C(\N)NN=Cc1cccc(Cl)c1Cl [Compound 16, (E)-2-(2,3-dichlorobenzylidene)hydrazine-1-carboximidamide]
Emax (HeLa cells [1]): 92%
EC50 (HeLa cells [2]): 20.8 µM
Effect on cell death (HeLa cells [2]): Yes
Kd (PPP1R15B-PP1; SPR, FIG. 1, read-out: KD for PPP1R15B-PP1): 0.035 µM

[H]/N=C(\N)NN=Cc1cccc(F)c1 [Compound 23, (E)-2-(3-fluorobenzylidene)hydrazine-1-carboximidamide]
Emax (HeLa cells [1]): 53%
Effect on cell death (HeLa cells [2]): No
Kd (PPP1R15B-PP1; [3]): 1.05 ± 0.32 µM

[H]/N=C(\N)NN=Cc1ccccc1F [Compound 17, (E)-2-(2-fluorobenzylidene)hydrazine-1-carboximidamide]
Emax (HeLa cells [1]): 66%
Effect on cell death (HeLa cells [2]): No
Kd (PP1): 12 ± 0.8 µM
Kd (PPP1R15B-PP1; [3]): 18.1 ± 1.8 µM

[H]/N=C(\N)NN=Cc1cc(Cl)cc(Cl)c1Cl [Compound 10, (E)-2-(2,3,5-trichlorobenzylidene)hydrazine-1-carboximidamide]
Emax (HeLa cells [1]): 85%
EC50 (HeLa cells [2]): 12.5 µM
Effect on cell death (HeLa cells [2]): Yes
Kd (PPP1R15B-PP1; [3]): 0.44 ± 0.09 µM

[H]/N=C(\N)NN=Cc1ccc(Cl)nc1Cl [Compound 22, (E)-2-((2,6-dichloropyridin-3-yl)methylene)hydrazine-1-carboximidamide]
Emax (HeLa cells [1]): 48%
Effect on cell death (HeLa cells [2]): No
Kd (PPP1R15B-PP1; [3]): 12.3 µM

[H]/N=C(\N)NN=Cc1cc(F)cc(F)c1Cl [Compound 29, (E)-2-(2-chloro-3,5-difluorobenzylidene)hydrazine-1-carboximidamide]
Emax (HeLa cells [1]): 62%
Effect on cell death (HeLa cells [2]): No
Kd (PPP1R15B-PP1; [3]): 4.06 µM

[H]/N=C(\N)NN=Cc1ccc(Cl)c(F)c1Cl [Compound 13, (E)-2-(2,4-dichloro-3-fluorobenzylidene)hydrazine-1-carboximidamide]
Emax (HeLa cells [1]): 73%
EC50 (HeLa cells [2]): 15.5 µM
Effect on cell death (HeLa cells [2]): Yes
Kd (PPP1R15B-PP1; [3]): 6.68 ± 2.34 µM

[H]/N=C(\N)NN=Cc1ccc(Cl)c(Cl)c1Cl [Compound 6, (E)-2-(2,3,4-trichlorobenzylidene)hydrazine-1-carboximidamide]
Emax (HeLa cells [1]): 61%
EC50 (HeLa cells [2]): 9.65 µM
Effect on cell death (HeLa cells [2]): Yes
Kd (PPP1R15B-PP1; [3]): 9.09 ± 1.37 µM

[H]/N=C(\N)NN=Cc1cc(Cl)ccc1Cl [Compound 26, (E)-2-(2,5-dichlorobenzylidene)hydrazine-1-carboximidamide]
Emax (HeLa cells [1]): 57%
Effect on cell death (HeLa cells [2]): No
Kd (PPP1R15B-PP1; [3]): 30 ± 2.3 µM

[H]/N=C(\N)NN=Cc1ccc(Cl)c(Cl)c1 [Compound 11, (E)-2-(3,4-dichlorobenzylidene)hydrazine-1-carboximidamide]
Emax (HeLa cells [1]): 34%
EC50 (HeLa cells [2]): 12.7 µM
Effect on cell death (HeLa cells [2]): Yes
Kd (PPP1R15B-PP1; [3]): 13.4 ± 0.47 µM

[H]/N=C(\N)NN=Cc1cc(F)ccc1Cl [Compound 20, (E)-2-(2-chloro-5-fluorobenzylidene)hydrazine-1-carboximidamide]
Emax (HeLa cells [1]): 88%
EC50 (HeLa cells [2]): 37.8 µM
Effect on cell death (HeLa cells [2]): Yes
Kd (PPP1R15B-PP1; [3]): 5.17 ± 0.69 µM

[H]/N=C(\N)NN=Cc1cccnc1Cl [Compound 21, (E)-2-((2-chloropyridin-3-yl)methylene)hydrazine-1-carboximidamide]
Emax (HeLa cells [1]): 41%
Effect on cell death (HeLa cells [2]): No
Kd (PPP1R15B-PP1; [3]): 0.537 µM

[H]/N=C(\N)NN=Cc1ccc(F)c(Cl)c1Cl [Compound 14, (E)-2-(2,3-dichloro-4-fluorobenzylidene)hydrazine-1-carboximidamide]
Emax (HeLa cells [1]): 100%
EC50 (HeLa cells [2]): 18.4 µM
Effect on cell death (HeLa cells [2]): Yes
Kd (PPP1R15B-PP1; [3]): 5.43 ± 1.26 µM

[H]/N=C(\N)NN=Cc1cc(Cl)cc(Cl)c1 [Compound 34, (E)-2-(3,5-dichlorobenzylidene)hydrazine-1-carboximidamide]
Emax (HeLa cells [1]): 57%
Effect on cell death (HeLa cells [2]): No
Kd (PPP1R15B-PP1; [3]): 31.3 ± 2 µM
